Converted amounts (≈) assume the structure as drawn. “And” between values parts separate entries of the source, which are not always exact repeats. Equal entries are not always repeated. Structures can show the parent of a compound that is named as a salt. Where two headings read alike, the source gives them in different places.
Tests used:
S. aureus (MCR) = test: microbe, parasite or virus in culture; assay type: cell-based; conditions: for MIC: Staphylococcus aureus, read-out: Minimal Inhibitory Concentration (MIC), S. aureus (MCR), multiple values = two or more tests; for Minimal Inhibitory Concentration (MIC), S. aureus (MCR): multiple values = two or more tests
P aeruginosa = test: MIC test (NCCLS broth dilution), growth inhibition; assay type: cell-based; conditions: for MIC: Pseudomonas aeruginosa, read-out: Potency to inhibit growth, P aeruginosa (MIC)
Protocol: (§1) Antimicrobial Testing (P. aeruginosa, E. coli, B. subtilis, S. aureus, S. aureus (MCR), A. niger and M. flavescens.)
(§2) The test compounds were solubilized, diluted, and pipetted in duplicate into 10 mL sterile culture tubes and dried under vacuum.
(§3) Challenge organisms, specified were grown overnight at 37° C. in the appropriate medium (i.e., Mueller-Hinton Broth). These pure broth cultures were diluted 1:1,000 and 2.0 mL were added to the test compound tubes.
(§4) Appropriate media controls, challenge organism viability controls, and antibiotic control dilutions (i.e., ampicillin and nystatin), were prepared in the same manner as the test compounds and run against the challenge organisms.

E. coli = test: MIC test (NCCLS broth dilution), growth inhibition; assay type: cell-based; conditions: for MIC: Escherichia coli
Protocol: as §1, §2, §3, §4

A. niger = test: MIC test, fungal growth inhibition; assay type: cell-based; conditions: for MIC: Aspergillus niger, read-out: Potency to inhibit growth, A. niger (MIC)
Protocol: as §1
(§5) The MIC test procedures conformed to the present protocol from the National Committee for Clinical Laboratory Standards (NCCLS), and were designed to provide basic antimicrobial data on compounds based on the MIC of the active component.
as §2, §3, §4

[1] = Solubilization of test articles in methanol:water; assay type: physicochemical; conditions: 50:50 methanol:water (v/v)
Protocol: (§6) Prior to conducting the assay, cell number, serum concentration, and medium conditions were optimized. Then using the assay conditions as described below, cells were seeded on day 1 and allowed to adhere for at least 1 hour. […] The initial solubilization of the test articles was in 50:50 methanol:water (v/v). […] On day 1, compounds 1439 and 1364 required sonication before solubility was reached). The cells plus compound were incubated overnight at 37° C., under a 5% CO2/[…] atmosphere. On day 2, the cells in the positive control wells were lysed with 0.9% Triton X-100 for 45 minutes to establish maximum levels of LDH release. The plates were centrifuged at 250× g for 5 minutes, the supernatants transferred to a new assay plate, and the LDH was measured. The assay plates were read at OD 490 nm.

NAD synthetase = NAD synthetase (Bacillus subtilis, UniProt P08164); test: NAD synthetase coupled enzyme assay; assay type: biochemical
Sequence of NAD synthetase (P08164 whole entry): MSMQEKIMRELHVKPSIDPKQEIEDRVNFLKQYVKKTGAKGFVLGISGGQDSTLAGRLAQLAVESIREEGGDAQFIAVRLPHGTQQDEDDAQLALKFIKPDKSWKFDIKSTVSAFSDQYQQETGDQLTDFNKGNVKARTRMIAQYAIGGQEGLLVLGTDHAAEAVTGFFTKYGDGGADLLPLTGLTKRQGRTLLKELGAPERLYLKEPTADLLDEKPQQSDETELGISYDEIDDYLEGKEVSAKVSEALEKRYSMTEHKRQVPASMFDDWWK
From the text: This Example illustrates the NAD synthetase enzyme inhibiting activity of some compounds of the present invention. [drawing 48] The coupled assay—production of NAD was monitored through conversion to NADH by alcohol dehydrogenase. [NADH] was monitored by 2 parallel methods: the change in absorbance at 340 nm, and fluorescence at 460 nm (excitation 320 nm). […] Controls were included for determining inhibitor background, precipitation, and ADH inhibition.

[2] = system: rabbit primary renal cells (RPRC); test: Cytotoxicity in rabbit primary renal cells (annexin V / PI flow cytometry); assay type: cell-based; conditions: 24 hr, mean ± SEM; for % CELLULAR NECROSIS (RPRC): at 300 μM; for % APOPTOSIS (RPRC): at peak effect (30 μM)
Protocol: Cytotoxicity in Rabbit Primary Renal Cells
Isolation of Proximal Tubules and Culture Conditions
Rabbit renal proximal tubules were isolated using the iron oxide perfusion method and grown in 35-mm tissue culture dishes under improved conditions. The cell culture medium was a 1:1 mixture of DMEM/Ham's F-12 (without D-glucose, phenol red, or sodium pyruvate) supplemented with 15 mM HEPES buffer, 2.5 mM L-gluatmine, 1 μM pyridoxine HCL, 15 mM sodium bicarbonate, and 6 mM lactate. Hydrocortisone (50 nM), selenium (5 ng/mL), human transferrin (5 μg/mL), bovine insulin (10 nM) and L-ascorbic acid-2-phosphate (50 μM) were added to fresh culture medium immediately prior to daily media change.
All numbered compounds were diluted in methanol and the final concentration of methanol in RPRC was less then 0.1% (v/v).
Measurement of RPRC Death
Cell death was monitored in RPRC by assessment of both annexin V and PI staining using flow cytometry. Briefly, RPRC were exposed to the indicated concentrations of compounds for 24 hr. Media was removed and RPRC washed twice with phosphate-buffered saline (PBS) and incubated in a binding buffer (10 mM HEPES, 140 mM NaCL, 5 mM KCL, 1 mM MgCl2, 1.8 mM CaCl2, pH=7.4) containing annexin V-FITC (1 μmol) and PI (25 μg/mL). After a 10 min incubation, RPRC were washed three times in the binding buffer and were released from the monolayers by gentle scrapping with a rubber policeman. Annexin V and PI staining were measured using a BectonDickson FacsCalibur flow cytometer (San Jose, Calif.). An equal number of cells (10,000) were counted for sample and apoptotic cells were defined as those that stained positive for annexin V-FITC only. RPRC undergoing necrotic cell death stained for PI only.
RPRC isolated from one rabbit represented one experiment (n=1). Data were analyzed and are reported as means±standard error of the mean of at least 3 separate experiments.

Murine 3T3 cells = test: Cytotoxicity in murine 3T3 cells (LDH release); assay type: cell-based; conditions: at 100 μM, 20 hrs
Protocol: as §6

M. flavescens = test: microbe, parasite or virus in culture; assay type: cell-based; conditions: for MIC: Mycolicibacterium flavescens, read-out: Minimal Inhibitory Concentration (MIC), M. flavescens
S. aureus = test: microbe, parasite or virus in culture; assay type: cell-based; conditions: multiple values = two or more tests; for MIC: Staphylococcus aureus, read-out: Minimal Inhibitory Concentration (MIC), S. aureus
B. subtilis = test: microbe, parasite or virus in culture; assay type: cell-based; conditions: multiple values = two or more tests; for MIC: Bacillus subtilis, read-out: Minimal Inhibitory Concentration (MIC), B. subtilis
C. albicans = test: MIC test, fungal growth inhibition; assay type: cell-based; conditions: in vitro; for MIC: Candida albicans, read-out: Potency to inhibit growth, C. albicans (MIC)
Protocol: as §5, §2, §3, §4

[3] = system: Bacillus anthracis Sterne 34F2; test: microbe, parasite or virus in culture; assay type: cell-based; conditions: Bacillus anthracis
[4] = NAD synthetase 2.0 μg/mL, 0.1 mM NaAD, 0.2 mM ATP, pH 8.5
[5] = in vitro, read-out: Potency to inhibit growth, E. coli (MIC)
[6] = STERNE34F2, read-out: approximate MIC, B. anthracis (first value)
[7] = STERNE34F2, read-out: approximate MIC, B. anthracis (second value)

## N=C(N)N[C@@H](Cc1ccccc1)C(=O)NCCCCCCCCOc1ccc(OCc2ccccc2)cc1 (as salt: trifluoroacetic acid salt) [Compound 1503]
other
  melting point: 108 to 113 °C

## C[N+](C)(C)C(Cc1ccccc1)C(=O)NCCCCCCCCOc1ccc(OCc2ccccc2)cc1 (stereo not drawn) [Compound 1364]
S. aureus (MCR)
  MIC: < 0.78 µg/mL
  Minimal Inhibitory Concentration (MIC), S. aureus (MCR): <1.56 µg/mL
P aeruginosa
  MIC: > 50 µg/mL
E. coli; read-out: Potency to inhibit growth, E. coli (MIC), in vitro
  MIC: < 50 µg/mL
A. niger
  MIC: > 50 µg/mL
[1]
  solubility of test article in methanol:water: went into solution on day 1, but precipitated on day 2
NAD synthetase
  IC50: 48.4 µM
[2]
  % CELLULAR NECROSIS (RPRC): 63 ± 2%
  % APOPTOSIS (RPRC): 15 ± 3%
Murine 3T3 cells
  % CELLULAR NECROSIS (FIBROBLASTS): 62%
M. flavescens
  MIC: > 50 µg/mL

## COc1cccc(COc2ccc(OCCCCCCCCNC(=O)[C@H](Cc3ccccc3)[N+](C)(C)C)cc2)c1.[I-] [Compound 1423]
S. aureus (MCR)
  Minimal Inhibitory Concentration (MIC), S. aureus (MCR): <1.56 µg/mL
P aeruginosa; in vitro
  Potency to inhibit growth, P aeruginosa (MIC): >50 µg/mL
E. coli; in vitro
  Potency to inhibit growth, E. coli (MIC): >50 µg/mL
S. aureus
  Minimal Inhibitory Concentration (MIC), S. aureus: <1.56 µg/mL
B. subtilis
  Minimal Inhibitory Concentration (MIC), B. subtilis: <0.20 µg/mL
A. niger; in vitro
  Potency to inhibit growth, A. niger (MIC): <50 µg/mL
C. albicans
  Potency to inhibit growth, C. albicans (MIC): <3.13 µg/mL
NAD synthetase; [4]
  IC50: 32.9 µM

## C[N+](C)(C)[C@H](COCCCCCCCCOc1ccc(OCc2ccccc2)cc1)Cc1ccccc1 [Compound 1439]
S. aureus (MCR)
  MIC: < 1.56 µg/mL
P aeruginosa; in vitro
  MIC: > 50 µg/mL
E. coli; [5]
  MIC: < 12.5 µg/mL
S. aureus
  MIC: < 0.78 µg/mL
B. subtilis
  MIC: < 0.39 µg/mL
A. niger; in vitro
  MIC: < 25 µg/mL
C. albicans
  MIC: < 3.13 µg/mL
[3]; [6]
  MIC: 4 µg/mL
[3]; [7]
  MIC: 4 µg/mL
[1]
  solubility of test article in methanol:water: never went into solution at 50% organic
NAD synthetase
  IC50: 22.7 µM
[2]
  % CELLULAR NECROSIS (RPRC): 62 ± 2%
  % APOPTOSIS (RPRC): 10 ± 1%
Murine 3T3 cells
  % CELLULAR NECROSIS (FIBROBLASTS): 73%
M. flavescens
  MIC: < 12.5 µg/mL

## C[N+](C)(C)[C@@H](Cc1ccccc1)C(=O)NCCCCCCCCn1ccc2cc(OCc3ccccc3)ccc21.[I-] [Compound 1447]
S. aureus (MCR)
  Minimal Inhibitory Concentration (MIC), S. aureus (MCR): <1.56; μg/mL and <1.56 μg/mL
P aeruginosa; in vitro
  Potency to inhibit growth, P aeruginosa (MIC): >50; >50 μg/mL
E. coli; in vitro
  Potency to inhibit growth, E. coli (MIC): >50: <50 μg/mL
S. aureus
  Minimal Inhibitory Concentration (MIC), S. aureus: <1.56; μg/mL and <0.78 μg/mL
B. subtilis
  Minimal Inhibitory Concentration (MIC), B. subtilis: <1.56 µg/mL and <0.78 µg/mL
A. niger; in vitro
  Potency to inhibit growth, A. niger (MIC): >50; >50 μg/mL
C. albicans
  Potency to inhibit growth, C. albicans (MIC): < 6.25 µg/mL and < 3.13 µg/mL
NAD synthetase; [4]
  IC50: 22.1 µM
M. flavescens
  Minimal Inhibitory Concentration (MIC), M. flavescens: <6.25 µg/mL

## C[N+](C)(C)[C@@H](Cc1ccccc1)C(=O)NCCCCCCCCOc1ccc2c(c1)C(=O)CC(c1ccccc1)O2.[I-] (stereo partly drawn) [Compound 1450]
S. aureus (MCR)
  Minimal Inhibitory Concentration (MIC), S. aureus (MCR): <3.13 µg/mL
P aeruginosa; in vitro
  Potency to inhibit growth, P aeruginosa (MIC): >50 µg/mL
E. coli; in vitro
  Potency to inhibit growth, E. coli (MIC): >50 µg/mL
S. aureus
  Minimal Inhibitory Concentration (MIC), S. aureus: <3.13 µg/mL
B. subtilis
  Minimal Inhibitory Concentration (MIC), B. subtilis: <3.13 µg/mL
A. niger; in vitro
  Potency to inhibit growth, A. niger (MIC): >50 µg/mL
C. albicans
  Potency to inhibit growth, C. albicans (MIC): <6.25 µg/mL
NAD synthetase; [4]
  IC50: 31.7 µM
M. flavescens
  Minimal Inhibitory Concentration (MIC), M. flavescens: <3.13 µg/mL

## N=C(N)N[C@@H](Cc1ccccc1)C(=O)NCCCCCCCCOc1ccc(OCc2ccccc2)cc1 [Compound 1503]
S. aureus (MCR)
  MIC: < 0.78 µg/mL
  Minimal Inhibitory Concentration (MIC), S. aureus (MCR): <1.56 µg/mL
P aeruginosa; in vitro
  MIC: > 50 µg/mL
E. coli; [5]
  MIC: > 50 µg/mL
S. aureus
  MIC: < 0.78 µg/mL
A. niger; in vitro
  MIC: > 50 µg/mL
C. albicans
  MIC: > 50 µg/mL
[3]; [6]
  MIC: 8 µg/mL (≈ 15.5 µM)
[3]; [7]
  MIC: 16 µg/mL (≈ 31 µM)
NAD synthetase
  IC50: 12.7 µM
M. flavescens
  MIC: > 50 µg/mL

## C[C@H]1c2cccc(O)c2C(=O)C2=C(O)[C@]3(O)C(=O)C(C(N)=O)=C(O)[C@@H](N(C)C)[C@@H]3[C@@H](O)[C@@H]21 [Doxycycline, reference compound]
S. aureus (MCR)
  MIC: < 30 µg/mL
P aeruginosa; in vitro
  MIC: < 30 µg/mL
E. coli; [5]
  MIC: < 1.56 µg/mL
S. aureus
  MIC: < 1.56 µg/mL
B. subtilis
  MIC: < 1.56 µg/mL
